Assay results published in patent publication US10160755B2 (Plexxikon Inc., priority 2015, dated 2018).

Key:
[1] = molecular target: c-Kit (Homo sapiens, UniProt P10721); test: c-Kit biochemical assay (per US 2007/0032519)
Outline: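 Biochemical kinase inhibition run per US 2007/0032519; values reported as binned IC50 ranges (0.0001–1 μM, 1–10 μM, 10–200 μM).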

[2] = molecular target: T1, FLT3-D835Y (Homo sapiens, UniProt P36888, D835Y); test: FLT3-D835Y biochemical kinase assay (AlphaScreen)
T1 construct: purchased Invitrogen PV3967
T1 sequence (P36888 27-993 D835Y): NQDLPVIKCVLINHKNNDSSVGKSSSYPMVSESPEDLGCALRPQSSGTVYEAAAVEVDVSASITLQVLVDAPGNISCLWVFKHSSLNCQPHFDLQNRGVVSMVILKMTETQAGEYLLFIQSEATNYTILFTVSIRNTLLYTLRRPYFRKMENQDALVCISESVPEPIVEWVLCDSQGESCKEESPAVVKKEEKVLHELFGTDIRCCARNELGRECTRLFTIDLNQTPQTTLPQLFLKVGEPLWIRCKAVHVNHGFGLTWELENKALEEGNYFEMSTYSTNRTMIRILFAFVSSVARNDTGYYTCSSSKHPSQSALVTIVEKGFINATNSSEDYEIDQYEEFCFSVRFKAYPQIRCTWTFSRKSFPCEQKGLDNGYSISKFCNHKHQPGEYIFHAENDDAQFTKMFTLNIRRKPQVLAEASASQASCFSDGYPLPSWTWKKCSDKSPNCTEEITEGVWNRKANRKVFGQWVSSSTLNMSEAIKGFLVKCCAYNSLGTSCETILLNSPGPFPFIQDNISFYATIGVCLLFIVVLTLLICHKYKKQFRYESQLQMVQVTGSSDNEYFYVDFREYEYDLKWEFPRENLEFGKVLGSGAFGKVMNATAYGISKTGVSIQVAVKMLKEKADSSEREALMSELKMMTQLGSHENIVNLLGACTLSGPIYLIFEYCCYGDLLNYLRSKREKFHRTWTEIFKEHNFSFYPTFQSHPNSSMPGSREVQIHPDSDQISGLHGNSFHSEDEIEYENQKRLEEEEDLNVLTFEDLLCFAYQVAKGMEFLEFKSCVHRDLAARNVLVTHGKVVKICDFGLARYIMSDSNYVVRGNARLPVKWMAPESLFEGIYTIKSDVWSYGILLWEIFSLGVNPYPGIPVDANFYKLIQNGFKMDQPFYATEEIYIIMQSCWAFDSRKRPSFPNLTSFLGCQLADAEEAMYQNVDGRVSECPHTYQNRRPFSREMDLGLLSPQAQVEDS
Outline: (§1)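 Recombinant enzyme phosphorylated biotin-poly(Glu4-Tyr) peptide (30 nM final); ATP final 10 μM for FLT3-D835Y, 100 μM for FLT3-ITD. AlphaScreen read-out: streptavidin donor and anti-phosphotyrosine (PY20) acceptor beads, 20 and 60 min at room temperature; inhibition seen as drop in 580 nm proximity signal; IC50 determined.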

[3] = molecular target: T2, FLT3-ITD (Homo sapiens, UniProt P36888); test: FLT3-ITD biochemical kinase assay (AlphaScreen)
T2 construct: FLT3-ITD; Invitrogen #PV6190
T2 sequence (P36888 1-993): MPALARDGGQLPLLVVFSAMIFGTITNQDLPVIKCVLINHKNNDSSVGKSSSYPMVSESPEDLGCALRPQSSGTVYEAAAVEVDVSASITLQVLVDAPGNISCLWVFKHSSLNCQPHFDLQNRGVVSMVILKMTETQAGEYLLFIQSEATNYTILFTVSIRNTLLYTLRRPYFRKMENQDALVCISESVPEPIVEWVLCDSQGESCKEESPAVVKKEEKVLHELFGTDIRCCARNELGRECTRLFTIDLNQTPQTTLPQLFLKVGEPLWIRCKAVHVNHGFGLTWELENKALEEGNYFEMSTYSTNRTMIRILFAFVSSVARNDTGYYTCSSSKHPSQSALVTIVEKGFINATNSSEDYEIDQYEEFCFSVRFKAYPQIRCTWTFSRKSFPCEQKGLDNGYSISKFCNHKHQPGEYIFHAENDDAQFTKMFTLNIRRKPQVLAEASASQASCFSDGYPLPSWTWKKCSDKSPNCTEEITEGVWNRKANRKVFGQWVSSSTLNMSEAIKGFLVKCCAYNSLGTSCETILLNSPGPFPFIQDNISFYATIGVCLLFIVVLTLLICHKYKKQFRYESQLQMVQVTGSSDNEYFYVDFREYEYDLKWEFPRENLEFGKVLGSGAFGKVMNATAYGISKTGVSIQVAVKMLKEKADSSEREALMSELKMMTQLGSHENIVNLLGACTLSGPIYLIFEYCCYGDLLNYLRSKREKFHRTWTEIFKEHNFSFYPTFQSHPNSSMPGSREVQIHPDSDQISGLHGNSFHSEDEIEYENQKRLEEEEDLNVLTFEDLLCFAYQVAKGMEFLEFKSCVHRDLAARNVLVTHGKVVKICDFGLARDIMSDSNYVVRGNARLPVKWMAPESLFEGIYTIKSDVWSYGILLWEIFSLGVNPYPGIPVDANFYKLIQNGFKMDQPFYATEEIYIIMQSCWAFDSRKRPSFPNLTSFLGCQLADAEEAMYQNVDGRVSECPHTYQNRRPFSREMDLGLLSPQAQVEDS
Outline: as §1

Sequence of c-Kit (P10721 26-976): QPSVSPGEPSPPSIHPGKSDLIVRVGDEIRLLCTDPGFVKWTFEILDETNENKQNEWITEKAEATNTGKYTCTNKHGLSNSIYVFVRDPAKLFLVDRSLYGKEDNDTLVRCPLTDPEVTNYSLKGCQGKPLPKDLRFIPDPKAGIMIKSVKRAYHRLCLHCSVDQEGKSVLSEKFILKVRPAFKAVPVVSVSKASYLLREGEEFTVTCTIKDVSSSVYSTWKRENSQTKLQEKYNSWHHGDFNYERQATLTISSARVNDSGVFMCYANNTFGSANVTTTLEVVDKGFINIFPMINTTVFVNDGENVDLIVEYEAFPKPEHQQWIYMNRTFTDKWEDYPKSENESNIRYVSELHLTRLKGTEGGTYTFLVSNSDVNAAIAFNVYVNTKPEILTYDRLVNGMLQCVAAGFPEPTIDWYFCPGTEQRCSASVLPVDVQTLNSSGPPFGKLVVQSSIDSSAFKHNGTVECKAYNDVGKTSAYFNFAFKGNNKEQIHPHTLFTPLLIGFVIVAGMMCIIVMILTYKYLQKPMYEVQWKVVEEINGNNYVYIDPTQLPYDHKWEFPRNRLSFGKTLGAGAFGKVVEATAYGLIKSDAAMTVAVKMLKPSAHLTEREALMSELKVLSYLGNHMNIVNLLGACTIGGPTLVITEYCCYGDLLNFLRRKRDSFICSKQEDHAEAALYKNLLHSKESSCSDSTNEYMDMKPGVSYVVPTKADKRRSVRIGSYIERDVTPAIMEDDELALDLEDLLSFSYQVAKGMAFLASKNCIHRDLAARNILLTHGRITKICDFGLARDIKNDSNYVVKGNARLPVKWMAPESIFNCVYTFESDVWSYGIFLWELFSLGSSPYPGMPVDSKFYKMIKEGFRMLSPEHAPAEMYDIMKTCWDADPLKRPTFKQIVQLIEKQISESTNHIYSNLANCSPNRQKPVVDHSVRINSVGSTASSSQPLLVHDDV

| Structure (SMILES) | IC50 [1] [µM] | IC50 [2] [µM] | IC50 [3] [µM] |
| --- | --- | --- | --- |
| c1nc2cc(-c3c[nH]c4ncc(-c5cnc(C6CC6)nc5)cc34)ccc2[nH]1 [P-027, 3-(1H-benzimidazol-5-yl)-5-(2-cyclopropylpyrimidin-5-yl)-1H-pyrrolo[2,3-b]pyridine] | 0.0001 to 1 | 0.0001 to 1 | 0.0001 to 1 |
| O=S(=O)(C1CC1)N1CC=C(c2cnc3[nH]cc(-c4ccc5[nH]cnc5c4)c3c2)CC1 [P-031, 3-(1H-benzimidazol-5-yl)-5-(1-cyclopropylsulfonyl-3,6-dihydro-2H-pyridin-4-yl)-1H-pyrrolo[2,3-b]pyridine] | 1 to 10 | 1 to 10 | 0.0001 to 1 |
| CCS(=O)(=O)Nc1cccc(-c2cnc3[nH]cc(-c4ccc5ncn(C)c5c4)c3c2)c1 [P-094, N-[3-[3-(3-methylbenzimidazol-5-yl)-1H-pyrrolo[2,3-b]pyridin-5-yl]phenyl]ethanesulfonamide] | 1 to 10 | 0.0001 to 1 | 0.0001 to 1 |
| COc1ccc(-c2cnc3[nH]cc(-c4ccc5ncn(C)c5c4)c3n2)cn1 [P-041, 2-(6-methoxy-3-pyridyl)-7-(3-methylbenzimidazol-5-yl)-5H-pyrrolo[2,3-b]pyrazine] | 1 to 10 | 0.0001 to 1 | 0.0001 to 1 |
| Cn1cnc2ccc(-c3c[nH]c4ncc(-c5cccc(N6CCOCC6)c5)cc34)cc21 [P-095, 4-[3-[3-(3-methylbenzimidazol-5-yl)-1H-pyrrolo[2,3-b]pyridin-5-yl]phenyl]morpholine] | 1 to 10 | 0.0001 to 1 | 0.0001 to 1 |
| COc1cc(-c2cnc3[nH]cc(-c4ccc5ncn(C)c5c4)c3c2)ccc1C#N [P-117, 2-methoxy-4-[3-(3-methylbenzimidazol-5-yl)-1H-pyrrolo[2,3-b]pyridin-5-yl]benzonitrile] | 1 to 10 | 0.0001 to 1 | 0.0001 to 1 |
| COc1cc(-c2cnc3[nH]cc(-c4ccc5ncn(C)c5c4)c3c2)ccc1Cl [P-092, 5-(4-chloro-3-methoxy-phenyl)-3-(3-methylbenzimidazol-5-yl)-1H-pyrrolo[2,3-b]pyridine] | 0.0001 to 1 | 0.0001 to 1 | 0.0001 to 1 |
| COC(=O)c1cc(-c2cnc3[nH]cc(-c4ccc5ncn(C)c5c4)c3c2)ccc1C [P-119] | 10 to 200 | 0.0001 to 1 | 0.0001 to 1 |
| Cn1cnc2ccc(-c3c[nH]c4ncc(OCC#N)cc34)cc21 [P-084, 2-[[3-(3-methylbenzimidazol-5-yl)-1H-pyrrolo[2,3-b]pyridin-5-yl]oxy]acetonitrile] | 1 to 10 | 0.0001 to 1 | 0.0001 to 1 |
| CN1CCOc2ccc(-c3c[nH]c4ncc(-c5cccc(NS(C)(=O)=O)c5)nc34)cc21 [P-065, N-[3-[7-(4-methyl-2,3-dihydro-1,4-benzoxazin-6-yl)-5H-pyrrolo[2,3-b]pyrazin-2-yl]phenyl]methanesulfonamide] | 10 to 200 | 0.0001 to 1 | 0.0001 to 1 |
| COc1cc(-c2cnc3[nH]cc(-c4ccc5ncn(C)c5c4)c3n2)ccn1 [P-045, 2-(2-methoxy-4-pyridyl)-7-(3-methylbenzimidazol-5-yl)-5H-pyrrolo[2,3-b]pyrazine] | 10 to 200 | 0.0001 to 1 | 0.0001 to 1 |
| Cn1cnc2ccc(-c3c[nH]c4ncc(-c5cccc(NS(C)(=O)=O)c5)cc34)cc21 [P-037, N-[3-[3-(3-methylbenzimidazol-5-yl)-1H-pyrrolo[2,3-b]pyridin-5-yl]phenyl]methanesulfonamide] | 10 to 200 | 0.0001 to 1 | 0.0001 to 1 |
| CS(=O)(=O)Nc1cccc(-c2cnc3[nH]cc(-c4ccc5c(c4)OC(F)(F)O5)c3n2)c1 [P-064, N-[3-[7-(2,2-difluoro-1,3-benzodioxol-5-yl)-5H-pyrrolo[2,3-b]pyrazin-2-yl]phenyl]methanesulfonamide] | 10 to 200 | 1 to 10 | 1 to 10 |
| Cn1cnc2ccc(-c3c[nH]c4ncc(-c5ccc(NS(C)(=O)=O)cc5)nc34)cc21 [P-063, N-[4-[7-(3-methylbenzimidazol-5-yl)-5H-pyrrolo[2,3-b]pyrazin-2-yl]phenyl]methanesulfonamide] | 1 to 10 | 0.0001 to 1 | 0.0001 to 1 |

Results, then the molecule that gave them:

| IC50 [1] [µM] | IC50 [2] [µM] | IC50 [3] [µM] | Structure (SMILES) |
| --- | --- | --- | --- |
| 1 to 10 | 0.0001 to 1 | 0.0001 to 1 | Cc1cnc2[nH]cc(-c3ccc4nc[nH]c4c3)c2c1 [P-021, 3-(3H-benzimidazol-5-yl)-5-methyl-1H-pyrrolo[2,3-b]pyridine] |
| 10 to 200 | 1 to 10 | 0.0001 to 1 | COc1cnc2[nH]cc(-c3ccc4[nH]c(C)nc4c3)c2c1 [P-015, 5-methoxy-3-(2-methyl-1H-benzimidazol-5-yl)-1H-pyrrolo[2,3-b]pyridine] |
| 1 to 10 | 0.0001 to 1 | 0.0001 to 1 | COc1cnc2[nH]cc(-c3ccc4ncn(C5CCCC5)c4c3)c2c1 [P-049, 1-cyclopentyl-6-(5-methoxy-1H-pyrrolo[2,3-b]pyridin-3-yl)benzimidazole] |
| 10 to 200 | 1 to 10 | 1 to 10 | Nc1nc2cc(-c3c[nH]c4ncccc34)ccc2[nH]1 [P-010, 5-(1H-pyrrolo[2,3-b]pyridin-3-yl)-1H-benzimidazol-2-amine] |
| 1 to 10 | 1 to 10 | 0.0001 to 1 | CC1(COc2cnc3[nH]cc(-c4ccc5[nH]cnc5c4)c3c2)COC1 [P-008, 3-(1H-benzimidazol-5-yl)-5-[(3-methyloxetan-3-yl)methoxy]-1H-pyrrolo[2,3-b]pyridine] |
| 1 to 10 | 0.0001 to 1 | 0.0001 to 1 | COc1cnc2[nH]cc(-c3ccc4[nH]nc(C)c4c3)c2c1 [P-083, 5-methoxy-3-(3-methyl-1H-indazol-5-yl)-1H-pyrrolo[2,3-b]pyridine] |
| 10 to 200 | 0.0001 to 1 | 0.0001 to 1 | COc1cnc2[nH]cc(-c3ccc4ncn(C)c4c3)c2c1 [P-016, 5-methoxy-3-(3-methylbenzimidazol-5-yl)-1H-pyrrolo[2,3-b]pyridine] |
